Reference: PMC7252619 (PLoS ONE, 2020)

How the values were obtained:
Test in all cases: Kinase activity test (ReactionBiology), % enzyme activity relative to DMSO
Type in all cases: biochemical
NEK2 = target: T1, NEK2 (Homo sapiens, UniProt P51955); details: NEK2; for % Enzyme Activity (relative to DMSO controls), Data 1: replicate Data 1; for % Enzyme Activity (relative to DMSO controls), Data 2: replicate Data 2;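 for all read-outs here: FDA-approved drugs chosen by structure-based repositioning, each screened at 10 or 1 µM for kinase activity, expressed as percent of DMSO controls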
T1 construct: purchased ReactionBiology
T1 sequence (P51955 1-445): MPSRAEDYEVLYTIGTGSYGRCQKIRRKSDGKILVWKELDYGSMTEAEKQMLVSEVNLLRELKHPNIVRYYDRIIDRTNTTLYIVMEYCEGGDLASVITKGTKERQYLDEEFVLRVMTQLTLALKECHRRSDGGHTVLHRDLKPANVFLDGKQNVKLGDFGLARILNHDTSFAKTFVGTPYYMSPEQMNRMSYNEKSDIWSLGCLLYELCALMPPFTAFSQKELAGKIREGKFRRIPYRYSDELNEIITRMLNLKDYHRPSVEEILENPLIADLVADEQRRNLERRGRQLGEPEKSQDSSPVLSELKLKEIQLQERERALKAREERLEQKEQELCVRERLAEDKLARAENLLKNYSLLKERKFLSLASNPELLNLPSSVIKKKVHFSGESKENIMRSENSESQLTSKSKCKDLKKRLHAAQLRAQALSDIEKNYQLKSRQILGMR

CK1d = target: T2, CK1d (Homo sapiens, UniProt P48730); details: CK1d; for % Enzyme Activity (relative to DMSO controls), Data 1: replicate Data 1; for % Enzyme Activity (relative to DMSO controls), Data 2: replicate Data 2
T2 construct: purchased ReactionBiology

EPHB4 = target: T3, EPHB4 (Homo sapiens, UniProt P54760); details: EPHB4; for % Enzyme Activity (relative to DMSO controls), Data 1: replicate Data 1; for % Enzyme Activity (relative to DMSO controls), Data 2: replicate Data 2;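 for all read-outs here: EPHB4 was one of ten selected kinases in the screening panel, with enzyme activity expressed as a percentage of DMSO controls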
T3 construct: purchased ReactionBiology
T3 sequence (P54760 16-987): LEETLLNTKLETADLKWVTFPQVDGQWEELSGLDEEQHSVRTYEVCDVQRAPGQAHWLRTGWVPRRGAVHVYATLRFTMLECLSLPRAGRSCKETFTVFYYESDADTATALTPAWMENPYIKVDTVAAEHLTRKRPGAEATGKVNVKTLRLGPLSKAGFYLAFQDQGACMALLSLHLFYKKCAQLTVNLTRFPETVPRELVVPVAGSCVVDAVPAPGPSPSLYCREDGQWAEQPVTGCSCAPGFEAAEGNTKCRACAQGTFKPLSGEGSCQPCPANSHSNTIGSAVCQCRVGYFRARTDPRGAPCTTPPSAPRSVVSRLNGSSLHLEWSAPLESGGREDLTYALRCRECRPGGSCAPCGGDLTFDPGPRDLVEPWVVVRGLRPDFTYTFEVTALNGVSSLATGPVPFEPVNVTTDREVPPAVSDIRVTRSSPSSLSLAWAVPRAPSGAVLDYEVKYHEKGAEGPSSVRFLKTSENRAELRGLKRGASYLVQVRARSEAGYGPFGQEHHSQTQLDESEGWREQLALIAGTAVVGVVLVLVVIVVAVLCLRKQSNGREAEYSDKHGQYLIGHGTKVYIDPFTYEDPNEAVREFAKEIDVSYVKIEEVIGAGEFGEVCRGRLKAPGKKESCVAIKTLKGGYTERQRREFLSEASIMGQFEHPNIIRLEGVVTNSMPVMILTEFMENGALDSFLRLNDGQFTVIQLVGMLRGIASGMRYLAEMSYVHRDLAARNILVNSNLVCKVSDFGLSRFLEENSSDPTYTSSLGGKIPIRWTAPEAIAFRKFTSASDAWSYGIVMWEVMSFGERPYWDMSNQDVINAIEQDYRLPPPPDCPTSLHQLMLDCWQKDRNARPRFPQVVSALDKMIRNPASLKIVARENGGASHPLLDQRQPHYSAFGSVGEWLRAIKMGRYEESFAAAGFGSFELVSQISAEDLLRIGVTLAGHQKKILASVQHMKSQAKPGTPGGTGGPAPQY

VEGFR2 = VEGFR2 (Homo sapiens, UniProt P35968); parameters: purchased ReactionBiology; details: VEGFR2; for % Enzyme Activity (relative to DMSO controls), Data 1: replicate Data 1; for % Enzyme Activity (relative to DMSO controls), Data 2: replicate Data 2;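 for all read-outs here: VEGFR2 was one member of a ten-kinase screening panel testing marketed FDA-approved drugs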
DAPK1 = target: T4, DAPK1 (Homo sapiens, UniProt P53355); details: DAPK1; for % Enzyme Activity (relative to DMSO controls), Data 1: replicate Data 1; for % Enzyme Activity (relative to DMSO controls), Data 2: replicate Data 2
T4 construct: purchased ReactionBiology
T4 sequence (P53355 whole entry): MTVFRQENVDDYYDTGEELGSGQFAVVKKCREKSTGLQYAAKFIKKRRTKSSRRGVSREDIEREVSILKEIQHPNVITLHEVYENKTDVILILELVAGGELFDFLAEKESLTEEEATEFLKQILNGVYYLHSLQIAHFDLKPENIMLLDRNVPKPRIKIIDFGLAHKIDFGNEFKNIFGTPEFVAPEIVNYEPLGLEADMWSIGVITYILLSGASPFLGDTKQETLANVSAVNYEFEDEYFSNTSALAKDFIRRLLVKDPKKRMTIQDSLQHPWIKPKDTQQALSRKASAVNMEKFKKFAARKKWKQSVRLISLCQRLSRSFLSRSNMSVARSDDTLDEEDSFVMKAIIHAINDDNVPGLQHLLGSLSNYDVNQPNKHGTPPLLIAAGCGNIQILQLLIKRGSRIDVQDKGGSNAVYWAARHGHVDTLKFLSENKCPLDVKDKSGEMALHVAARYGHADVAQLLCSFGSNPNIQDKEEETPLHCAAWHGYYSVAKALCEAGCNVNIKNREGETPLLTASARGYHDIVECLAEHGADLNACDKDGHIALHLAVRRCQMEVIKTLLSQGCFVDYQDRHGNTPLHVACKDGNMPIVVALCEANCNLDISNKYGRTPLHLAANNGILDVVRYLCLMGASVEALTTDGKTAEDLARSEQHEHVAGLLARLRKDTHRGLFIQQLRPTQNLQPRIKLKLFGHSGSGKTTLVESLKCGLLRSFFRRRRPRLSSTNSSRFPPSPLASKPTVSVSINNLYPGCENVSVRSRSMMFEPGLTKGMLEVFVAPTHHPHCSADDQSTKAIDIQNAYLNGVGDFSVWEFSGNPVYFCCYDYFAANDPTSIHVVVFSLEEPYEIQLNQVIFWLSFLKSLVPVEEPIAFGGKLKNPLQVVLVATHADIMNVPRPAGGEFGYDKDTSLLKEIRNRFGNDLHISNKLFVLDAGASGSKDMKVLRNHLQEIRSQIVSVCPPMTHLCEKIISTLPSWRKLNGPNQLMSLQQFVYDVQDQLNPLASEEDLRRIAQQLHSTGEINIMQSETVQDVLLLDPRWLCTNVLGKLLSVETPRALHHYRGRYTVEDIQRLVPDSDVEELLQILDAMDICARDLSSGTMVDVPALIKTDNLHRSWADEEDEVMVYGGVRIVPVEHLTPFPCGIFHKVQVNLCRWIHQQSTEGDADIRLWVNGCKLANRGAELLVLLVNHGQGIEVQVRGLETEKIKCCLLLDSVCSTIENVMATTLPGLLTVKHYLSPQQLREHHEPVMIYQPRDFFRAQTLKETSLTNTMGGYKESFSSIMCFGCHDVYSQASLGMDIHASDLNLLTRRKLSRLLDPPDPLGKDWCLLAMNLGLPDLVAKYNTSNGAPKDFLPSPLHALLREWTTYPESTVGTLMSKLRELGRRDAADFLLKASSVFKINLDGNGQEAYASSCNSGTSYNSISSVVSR

T2 sequence (P48730 whole entry): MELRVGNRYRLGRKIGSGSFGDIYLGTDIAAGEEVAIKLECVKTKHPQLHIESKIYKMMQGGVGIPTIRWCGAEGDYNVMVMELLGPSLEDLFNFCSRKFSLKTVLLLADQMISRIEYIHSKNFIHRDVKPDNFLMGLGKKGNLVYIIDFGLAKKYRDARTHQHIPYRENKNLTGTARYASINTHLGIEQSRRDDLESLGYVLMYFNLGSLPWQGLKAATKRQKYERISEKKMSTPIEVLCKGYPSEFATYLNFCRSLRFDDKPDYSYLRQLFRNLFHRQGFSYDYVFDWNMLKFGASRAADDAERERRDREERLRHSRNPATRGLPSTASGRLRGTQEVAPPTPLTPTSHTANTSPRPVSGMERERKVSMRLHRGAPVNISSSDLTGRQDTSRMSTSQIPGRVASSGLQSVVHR
VEGFR2, sequence (P35968 20-1356): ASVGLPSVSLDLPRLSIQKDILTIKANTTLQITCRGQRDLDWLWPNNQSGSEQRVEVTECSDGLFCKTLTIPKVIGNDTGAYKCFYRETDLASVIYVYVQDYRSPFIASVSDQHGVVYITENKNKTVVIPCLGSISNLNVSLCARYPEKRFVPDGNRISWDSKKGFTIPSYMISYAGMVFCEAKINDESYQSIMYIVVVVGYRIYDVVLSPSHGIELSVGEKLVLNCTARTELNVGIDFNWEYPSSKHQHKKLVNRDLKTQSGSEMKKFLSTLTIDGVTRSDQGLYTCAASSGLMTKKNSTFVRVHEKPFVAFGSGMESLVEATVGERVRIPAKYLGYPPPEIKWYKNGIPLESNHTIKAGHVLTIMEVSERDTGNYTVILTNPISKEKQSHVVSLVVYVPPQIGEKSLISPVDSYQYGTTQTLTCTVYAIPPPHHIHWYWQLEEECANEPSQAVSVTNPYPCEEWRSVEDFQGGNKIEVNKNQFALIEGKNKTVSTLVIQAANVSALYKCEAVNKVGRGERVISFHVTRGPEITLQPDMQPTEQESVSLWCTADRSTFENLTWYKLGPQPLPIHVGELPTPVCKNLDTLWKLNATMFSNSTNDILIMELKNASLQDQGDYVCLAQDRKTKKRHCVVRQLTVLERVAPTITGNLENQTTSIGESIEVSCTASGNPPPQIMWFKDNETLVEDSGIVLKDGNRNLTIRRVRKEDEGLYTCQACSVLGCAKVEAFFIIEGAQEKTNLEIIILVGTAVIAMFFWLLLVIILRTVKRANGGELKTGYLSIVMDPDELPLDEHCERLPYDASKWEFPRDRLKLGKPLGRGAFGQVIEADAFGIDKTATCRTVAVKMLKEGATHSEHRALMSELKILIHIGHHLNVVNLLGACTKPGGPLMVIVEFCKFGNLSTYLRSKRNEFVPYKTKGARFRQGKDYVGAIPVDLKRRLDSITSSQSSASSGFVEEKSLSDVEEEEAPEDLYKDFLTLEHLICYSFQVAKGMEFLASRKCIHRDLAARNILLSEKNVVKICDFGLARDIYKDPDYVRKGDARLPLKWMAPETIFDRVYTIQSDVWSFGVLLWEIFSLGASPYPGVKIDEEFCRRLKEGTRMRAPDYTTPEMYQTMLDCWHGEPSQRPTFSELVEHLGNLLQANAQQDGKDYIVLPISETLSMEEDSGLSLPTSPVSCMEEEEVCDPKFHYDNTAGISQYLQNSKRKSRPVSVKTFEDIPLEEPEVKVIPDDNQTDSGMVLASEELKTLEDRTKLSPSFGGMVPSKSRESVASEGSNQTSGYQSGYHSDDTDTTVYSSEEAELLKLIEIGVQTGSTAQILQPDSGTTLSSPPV

Compound	% Enzyme Activity (relative to DMSO controls), Average (NEK2; 1 uM) [%]	% Enzyme Activity (relative to DMSO controls), Data 1 (NEK2; 1 uM) [%]	% Enzyme Activity (relative to DMSO controls), Data 2 (NEK2; 1 uM) [%]	% Enzyme Activity (relative to DMSO controls), Average (NEK2; 10 uM) [%]	% Enzyme Activity (relative to DMSO controls), Data 1 (NEK2; 10 uM) [%]	% Enzyme Activity (relative to DMSO controls), Data 2 (NEK2; 10 uM) [%]	% Enzyme Activity (relative to DMSO controls), Average (CK1d; 1 uM) [%]	% Enzyme Activity (relative to DMSO controls), Data 1 (CK1d; 1 uM) [%]	% Enzyme Activity (relative to DMSO controls), Average (EPHB4; 1 uM) [%]	% Enzyme Activity (relative to DMSO controls), Data 1 (EPHB4; 1 uM) [%]	% Enzyme Activity (relative to DMSO controls), Data 2 (EPHB4; 1 uM) [%]	% Enzyme Activity (relative to DMSO controls), Average (EPHB4; 10 uM) [%]	% Enzyme Activity (relative to DMSO controls), Data 1 (EPHB4; 10 uM) [%]	% Enzyme Activity (relative to DMSO controls), Data 2 (EPHB4; 10 uM) [%]	% Enzyme Activity (relative to DMSO controls), Average (VEGFR2; 1 uM) [%]	% Enzyme Activity (relative to DMSO controls), Data 1 (VEGFR2; 1 uM) [%]	% Enzyme Activity (relative to DMSO controls), Data 2 (VEGFR2; 1 uM) [%]	% Enzyme Activity (relative to DMSO controls), Average (VEGFR2; 10 uM) [%]	% Enzyme Activity (relative to DMSO controls), Data 1 (VEGFR2; 10 uM) [%]	% Enzyme Activity (relative to DMSO controls), Data 2 (VEGFR2; 10 uM) [%]	further results
O=C(O)c1cc(-c2ccc(F)cc2F)ccc1O [Diflunisal]	92.13	87.06	97.20	102.79	100.11	105.46	189.68	106.89													% Enzyme Activity (relative to DMSO controls), Data 2 (CK1d; 1 uM): 272.47%; % Enzyme Activity (relative to DMSO controls), Average (CK1d; 10 uM): 105.59%; % Enzyme Activity (relative to DMSO controls), Data 1 (CK1d; 10 uM): 104.76%; % Enzyme Activity (relative to DMSO controls), Data 2 (CK1d; 10 uM): 106.42%
C[C@H]1O[C@@H](O[C@H]2[C@@H](O)C[C@H](O[C@H]3[C@@H](O)C[C@H](O[C@H]4CC[C@@]5(C)[C@H](CC[C@@H]6[C@@H]5C[C@@H](O)[C@]5(C)[C@@H](C7=CC(=O)OC7)CC[C@]65O)C4)O[C@@H]3C)O[C@@H]2C)C[C@H](O)[C@@H]1O [Digoxin]							103.51	105.62	101.58	99.88	103.27	92.84	91.71	93.96							% Enzyme Activity (relative to DMSO controls), Data 2 (CK1d; 1 uM): 101.39%; % Enzyme Activity (relative to DMSO controls), Average (CK1d; 10 uM): 100.70%; % Enzyme Activity (relative to DMSO controls), Data 1 (CK1d; 10 uM): 102.31%; % Enzyme Activity (relative to DMSO controls), Data 2 (CK1d; 10 uM): 99.09%
COc1ccc2c3c1O[C@H]1C[C@@H](O)C=C[C@@]31CCN(C)C2 [Galantamine]									104.29	104.73	103.85	94.53	95.37	93.68	103.82	106.14	101.5	93.22	95.78	90.65	
N[C@H]1C(O)O[C@H](CO)[C@@H](O)[C@@H]1O (some centres unmarked) [Glucosamine]	82.84	79.92	85.75	95.78	90.86	100.69															% Enzyme Activity (relative to DMSO controls), Average (DAPK1; 1 uM): 102.43%; % Enzyme Activity (relative to DMSO controls), Data 1 (DAPK1; 1 uM): 102.25%; % Enzyme Activity (relative to DMSO controls), Data 2 (DAPK1; 1 uM): 102.61%; % Enzyme Activity (relative to DMSO controls), Average (DAPK1; 10 uM): 123.43%; % Enzyme Activity (relative to DMSO controls), Data 1 (DAPK1; 10 uM): 142.72%; % Enzyme Activity (relative to DMSO controls), Data 2 (DAPK1; 10 uM): 104.13%
O=C1c2cccc3c2[C@H](CCC3)CN1[C@@H]1CN2CCC1CC2 [Palonosetron]									97.11	97.96	96.26	88.19	86.49	89.88							
CCCCC1C(=O)N(c2ccccc2)N(c2ccccc2)C1=O [Phenylbutazone]									101.67	102.42	100.92	94.49	94.37	94.61	106.05	102.9	109.19	96.15	86.33	105.96	
CCc1nc(N)nc(N)c1-c1ccc(Cl)cc1 [Pyrimethamine]	106.09	107.69	104.49	102.63	102.17	103.08	93.71	95.24							107.43	104.33	110.52	102.76	106.39	99.13	% Enzyme Activity (relative to DMSO controls), Data 2 (CK1d; 1 uM): 92.18%; % Enzyme Activity (relative to DMSO controls), Average (CK1d; 10 uM): 84.36%; % Enzyme Activity (relative to DMSO controls), Data 1 (CK1d; 10 uM): 85.89%; % Enzyme Activity (relative to DMSO controls), Data 2 (CK1d; 10 uM): 82.82%
Cc1nc(=O)c2cc(CN(C)c3ccc(C(=O)N[C@@H](CCC(=O)O)C(=O)O)s3)ccc2[nH]1 [Raltitrexed]	103.04	108.18	97.89	95.93	101.42	90.43									107.68	107.41	107.94	105.59	105	106.17	
CCCc1nn(C)c2c(=O)[nH]c(-c3cc(S(=O)(=O)N4CCN(C)CC4)ccc3OCC)nc12 [Sildenafil]		95.77			85.23			107.72								112.59			111.96		
C/C(O)=C(\C#N)C(=O)Nc1ccc(C(F)(F)F)cc1 [Teriflunomide]									101.51	102.27	100.74	94.56	96.08	93.04							
